Assay results from patent US20060205771A1, “Caspase inhibitors as anticancer agents” (priority 2002, published 2006).
*: point of attachment. Cbz = O=C(OCc1ccccc1)*; CH2F = FC*

What was measured:
[1] = system: UT-9 astrocytoma cell line; test: survival of UT-9 astrocytoma cell line (MTT/DAPI count); format: cell-based; settings: BCNU alone at doses equivalent to those used for 1789 and UT-12, FIG. 5
Procedure: (§1) A variety of cells were exposed to BCNU (also known as carmustine) in the presence of a variety of caspase inhibitors. This alkylating agent is frequently employed in the treatment of cancers of the central nervous system, as well as for treatment of certain lymphomas. The growth of tumor cells and normal human brain precursor cells in chemically-defined medium was assayed under various conditions of alkylating agent and/or caspase inhibitor. Cells were exposed to BCNU at varying dosages, depending upon the outcome of characterization of their sensitivity to BCNU. In general, dosages were employed for which it would be possible to recognize protection from the cytotoxic effects of this alkylating agent, as well as to recognize increased anticancer activity depending on the conditions, of for example, the caspase inhibitor and the activity of this compound.
(§2) After 24 hours, cells were pretreated for 1 hour with caspase inhibitors at a concentration of 20 microM, following exposure to BCNU for 1 hour at concentrations that would kill approximately 50% of the tumor cells, as determined by dose-response experiments. In general, the BCNU concentration applied ranged from 5 microg/ml to 20 microg/ml. Exposure periods were based upon the known clearance rate of BCNU in vivo. […] Percentages of cell survival were normalized to controls. All experiments were performed at least as quadruplicates. […]

normal astrocytes = test: BCNU cytotoxicity on normal astrocytes; format: cell-based; settings: agent alone, FIG. 8
Procedure: as §1

NIH3T3 cells = settings: cited from earlier work
[2] = system: UT-12 glioblastoma cell line; test: survival of UT-12 glioblastoma cell line (MTT/DAPI count); format: cell-based; settings: UT-12 glioma cells; FIG. 6
Procedure: as §1, §2

SW480 colon cancer cells = test: cisplatin-induced death of SW480 colon cancer cells; format: cell-based; settings: cisplatin alone, FIG. 10
Caspase-1 = biological target: T1, Caspase-1 (Homo sapiens, UniProt P29466); settings: cited from earlier work
T1 sequence (P29466 120-297 limits assumed): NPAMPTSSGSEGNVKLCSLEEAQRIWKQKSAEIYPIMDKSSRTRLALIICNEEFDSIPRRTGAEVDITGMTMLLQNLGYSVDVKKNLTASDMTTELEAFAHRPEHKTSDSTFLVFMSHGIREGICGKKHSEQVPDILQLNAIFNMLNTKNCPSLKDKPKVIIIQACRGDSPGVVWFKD
T1 sequence (P29466 317-404 limits assumed): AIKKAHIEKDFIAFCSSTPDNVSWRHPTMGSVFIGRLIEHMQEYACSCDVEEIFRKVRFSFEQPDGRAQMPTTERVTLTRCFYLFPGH

human liver cells = settings: cited from earlier work
[3] = system: SW480 (colon adenocarcinoma); settings: SW480 cell line; cited from earlier work
[4] = system: H460 (non-small cell lung cancer); settings: H460 cell line; cited from earlier work
caspase-3 = biological target: T2, caspase-3 (Homo sapiens, UniProt P42574); settings: cited from earlier work
T2 sequence (P42574 29-175 limits assumed): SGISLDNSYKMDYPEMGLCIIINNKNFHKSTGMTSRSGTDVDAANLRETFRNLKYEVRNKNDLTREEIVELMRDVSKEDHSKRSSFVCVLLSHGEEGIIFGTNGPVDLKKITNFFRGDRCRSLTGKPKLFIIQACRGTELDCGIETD
T2 sequence (P42574 176-277 limits assumed): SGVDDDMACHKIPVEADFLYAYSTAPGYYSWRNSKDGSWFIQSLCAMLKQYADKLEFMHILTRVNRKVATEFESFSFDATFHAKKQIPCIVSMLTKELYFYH

O=NN(CCCl)C(=O)NCCCl [BCNU, carmustine]
reduction in cell number [1]: causes only a minor reduction in cell number
killing of astrocytes (normal astrocytes): Astrocytes were killed by BCNU

COc1ccc(O)c(C(C)(C)C)c1 [BHA, butylated hydroxyanisole]
protection from cytotoxicity of tumor necrosis factor plus caspase-8 inhibition (NIH3T3 cells; pretreatment, Luschen et al.): protected NIH3T3 cells from cytotoxicity induced by the combination of tumor necrosis factor and caspase-8 inhibition

O=C1O[C@H]([C@@H](O)CO)C(O)=C1O [Vitamin C, ascoribic acid]
cell killing by the full combination (caspase 9 and pan-caspase inhibition, BCNU, Vitamin C) [2]: kills all of the UT-12 glioma cells

N.N.[Cl][Pt][Cl] [cisplatin, Cisplatin]
cell death / reduction in number of cells (SW480 colon cancer cells): cisplatin-induced death

Ac-YVAD-CHO
inhibition of Caspase-1 (Caspase-1): strong inhibitor of Caspase-1

Cbz-LEHD-CH2F
protection from TRAIL-associated toxicity (human liver cells): effectively protects liver cells from TRAIL-associated toxicity
protection from TRAIL induced death [3]: did not protect
protection from TRAIL induced death [4]: did not protect

TRAIL: tumor necrosis factor-related apoptosis-inducing ligand
induction of cell death (human liver cells): induces cell death in human liver cells by a caspase-9 dependent mechanism

c-DEVD-CHO
inhibition of caspase-3 (caspase-3): inhibits preferentially (but not specifically) caspase-3

zVAD.fmk
sensitization to the action of TNF (NIH3T3 cells; Luschen et al, 2000): Sensitization to the action of TNF
